Our source for the IC50 values is patent US20140315933A1, “CHEMICAL COMPOUNDS” (Pfizer Limited, priority 2013, published 2014).

Counter-ions that a name gives are not always drawn.

What is called IC50 is the point on the concentration scale where inhibition reaches its midpoint.

The target of one experiment is T1, URAT-1 transporter (Homo sapiens, UniProt Q96S37).
T1 construct: expressed in transfected cells
Briefly: URAT-1 inhibitor activity: [14C]-uric acid uptake into CHO-URAT1(L)GFP#8 (CHO#8) cells, scintillation proximity. The class given is cell-based.
Conditions: not given
From the text: The nucleotide sequence for the long isoform of URAT1 (NM_144585) was C-terminally fused to that of enhanced green fluorescent protein (eGFP) (hereinafter referred to as URAT1(L)GFP). The combined sequence was codon-optimised and custom synthesized. The synthesized sequence was generated in pDONR221 Gateway entry vector (Invitrogen Life Technologies) prior to cloning in pLenti6.3/V5 Gateway destination vector (Invitrogen Life Technologies).
Lentiviral particles were generated according to ViraPower HiPerform expression system procedure (Invitrogen Life Technologies) and used to transduce CHO cells. Blasticidin selection enabled the generation of a stable clonal pool of cells, confirmed by expression of GFP and V5 epitope. The clonal pools were sorted using fluorescence-activated cell sorting (FACS) on the basis of GFP expression with the gating set at the top 50% of expression into single cells which were subsequently expanded to generate clonal lines. […] This cell line was used for all screening activities and is referred to as CHO-URAT1(L)GFP#8 or CHO#8.
The potency of the compounds of formula (I) as inhibitors of the URAT-1 transporter was determined as follows.
CHO#8 cells were cultured in cell line maintenance flasks in medium consisting of Dulbecco's modified Eagle medium (DMEM) with high glucose and sodium pyruvate (4.5 g of glucose per litre, Invitrogen Life Technologies), supplemented with heat-inactivated foetal bovine serum (FBC, 10% v/v), 1×NEAA (non-essential amino acids) and blasticidin (10 μg/ml). Cultures were grown in 175 cm^2 tissue culture flasks in a humidified incubator at approximately 37° C. in approximately 95% air/5% CO2. Near confluent CHO#8 cell cultures were harvested by trypsinisation, re-suspended in culture medium and the process was repeated once or twice weekly to provide sufficient cells for use.
Assay ready flasks were generated by the same method, except the cells were not cultured in blasticidin.
Assay ready frozen cells were generated by freezing 40,000,000 cells in 1 ml of FBS (without blasticidin) containing 10% DMSO per vial. One vial was sufficient for 5 assay plates. Each vial was thawed rapidly to 37° C., washed and re-suspended in pre-warmed culture medium for seeding onto assay plates.
CHO#8 cells were seeded onto Cytostar™ 96-well plates at a density of […]. The cells were cultured for 1 day at approximately 37° C. in a humidified incubator containing approximately 5% CO2 in air. After approximately 24 hours culture, cells were used for uptake experiments.
On the day of assay, culture medium was removed from the wells and the cells were washed once with 50 μL of chloride-containing buffer (136.7 mM NaCl, 5.36 mM KCl, 0.952 mM CaCl2, 0.441 mM KH2PO4, 0.812 mM MgSO4, 5.6 mM D-glucose, 0.383 mM Na2HPO4.2H2O, 10 mM HEPES, pH 7.4 with NaOH). The cells were pre-incubated with another 50 μL of chloride-containing buffer for one hour at approximately 37° C. in a humidified incubator containing approximately 5% CO2 in air.
Assay compound plates were prepared by diluting the compounds of formula (I) with chloride-free buffer (125 mM Na-gluconate, 4.8 mM K-gluconate, 1.3 mM Ca-gluconate, 1.2 mM KH2PO4, 1.2 mM MgSO4, 5.6 mM D-glucose, 25 mM HEPES, pH 7.4 with NaOH) in 100% DMSO to a final concentration of 1% DMSO. [^14C]-Uric Uric acid working stock was made by addition of radiolabeled compound to a final concentration of 120 nM in chloride-free buffer. In all wells, the final assay concentration of solvent (DMSO) was 0.25%; the final assay concentration of [^14C]-uric acid was 30 nM in chloride-free buffer and the final compound of formula (I) concentrations ranged from 0 to 10 μM.
After pre-incubation, cells were washed with 50 μL of chloride-free buffer and another 50 μL of chloride-free buffer was added. […]
(In general: Scintillation proximity formats need no separation of bound from free tracer.)
Consider `N#Cc1ccc(Oc2ccc(S(=O)(=O)Nc3nccs3)cc2C#N)cc1Cl` [Example 1, 4-(3-chloro-4-cyanophenoxy)-3-cyano-N-(1,3-thiazol-2-yl)benzenesulfonamide], for which the IC50 was determined as 58 nM.
Same read-out and setting: for `CCc1cc(F)ccc1Oc1ccc(S(=O)(=O)Nc2ncns2)cc1CC` [Example 2, 3-ethyl-4-(2-ethyl-4-fluorophenoxy)-N-(1,2,4-thiadiazol-5-yl)benzenesulfonamide diethylamine salt] the value was 64 nM; for `CCc1cc(F)ccc1Oc1ccc(S(=O)(=O)Nc2ncns2)cc1I` [Example 3, 4-(2-ethyl-4-fluorophenoxy)-3-iodo-N-(1,2,4-thiadiazol-5-yl)benzenesulfonamide], 69 nM; for `Cn1ccc(NS(=O)(=O)c2ccc(Oc3ccc(C#N)c(Cl)c3)c(C#N)c2)n1` [Example 4, 4-(3-chloro-4-cyanophenoxy)-3-cyano-N-(1-methyl-1H-pyrazol-3-yl)benzenesulfonamide diethylamine salt], 3360 nM.
On the same count and under the same terms, to `Cc1cc(NS(=O)(=O)c2ccc(Oc3ccc(C#N)c(Cl)c3)c(C#N)c2)no1` [Example 5, 4-(3-chloro-4-cyanophenoxy)-3-cyano-N-(5-methyl-1,2-oxazol-3-yl)benzenesulfonamide diethylamine salt] belongs more than 10000 nM; to `O=S(=O)(Nc1nccs1)c1ccc(Oc2ccc(C(F)(F)F)cc2C(F)(F)F)c(F)c1` [Example 6, 4-[2,4-bis(trifluoromethyl)phenoxy]-3-fluoro-N-(1,3-thiazol-2-yl)benzenesulfonamide], more than 10000 nM.
The same measure, in the same setting: for `N#Cc1cc(S(=O)(=O)Nc2nccs2)ccc1Oc1ccc(CO)cc1F` [Example 7, 3-cyano-4-[2-fluoro-4-(hydroxymethyl)phenoxy]-N-(1,3-thiazol-2-yl)benzenesulfonamide, diethylamine salt] the value was 141 nM; for `N#Cc1cc(S(=O)(=O)Nc2nccs2)ccc1Oc1ccc(Br)cc1CO` [Example 8, 4-[4-bromo-2-(hydroxymethyl)phenoxy]-3-cyano-N-(1,3-thiazol-2-yl)benzenesulfonamide], 2140 nM; for `COc1cc(Cl)c(Cl)cc1Oc1ccc(S(=O)(=O)Nc2ncns2)cc1C#N` [Example 9, 3-cyano-4-(4,5-dichloro-2-methoxyphenoxy)-N-(1,2,4-thiadiazol-5-yl)benzenesulfonamide], more than 2810 nM.
For `COc1ccc(Cl)cc1Oc1ccc(S(=O)(=O)Nc2ncns2)cc1C#N` [Example 10, 4-(5-chloro-2-methoxyphenoxy)-3-cyano-N-(1,2,4-thiadiazol-5-yl)benzenesulfonamide diethylamine salt], the IC50 was more than 5760 nM.
Same read-out and setting: for `CC(C)Oc1ccc(Cl)cc1Oc1ccc(S(=O)(=O)Nc2ncns2)cc1C#N` [Example 11, 4-[5-chloro-2-(propan-2-yloxy)phenoxy]-3-cyano-N-(1,2,4-thiadiazol-5-yl)benzenesulfonamide diethylamine salt] the value was 1380 nM; for `CCOc1cc(Cl)ccc1Oc1ccc(S(=O)(=O)Nc2ncns2)cc1C#N` [Example 12, 4-(4-chloro-2-ethoxyphenoxy)-3-cyano-N-(1,2,4-thiadiazol-5-yl)benzenesulfonamide], 354 nM; for `N#Cc1cc(S(=O)(=O)Nc2ncns2)ccc1Oc1ccc(Cl)cc1` [Example 13, 4-(4-chlorophenoxy)-3-cyano-N-(1,2,4-thiadiazol-5-yl)benzenesulfonamide diethylamine salt], 1270 nM.
In the case of `CC(C)c1cccc(Oc2ccc(S(=O)(=O)Nc3ncns3)cc2C#N)c1` [Example 14, 3-cyano-4-[3-(propan-2-yl)phenoxy]-N-(1,2,4-thiadiazol-5-yl)benzenesulfonamide diethylamine salt], the IC50 is more than 2900 nM.
Still for that read-out and setting: for `N#Cc1ccc(Oc2ccc(S(=O)(=O)Nc3ncns3)cc2C#N)cc1` [Example 15, 3-cyano-4-(4-cyanophenoxy)-N-(1,2,4-thiadiazol-5-yl)benzenesulfonamide diethylamine salt] the value was more than 7370 nM; for `N#Cc1cc(S(=O)(=O)Nc2ncns2)ccc1Oc1ccc(Cl)cc1Cl` [Example 16, 3-cyano-4-(4,6-dichlorophenoxy)-N-(1,2,4-thiadiazol-5-yl)benzenesulfonamide], 428 nM.
For `CCOc1ncccc1Oc1ccc(S(=O)(=O)Nc2ncns2)cc1C#N` [Example 17, 3-cyano-4-[(2-ethoxypyridin-3-yl)oxy]-N-(1,2,4-thiadiazol-5-yl)benzenesulfonamide diethylamine salt], it took 161 nM to reach half-maximal inhibition (IC50).
In the case of `COc1ccncc1Oc1ccc(S(=O)(=O)Nc2ncns2)cc1C#N` [Example 18, 3-cyano-4-[(4-methoxypyridin-3-yl)oxy]-N-(1,2,4-thiadiazol-5-yl)benzenesulfonamide], the IC50 is more than 10000 nM.
With `N#Cc1cc(S(=O)(=O)Nc2ncns2)ccc1Oc1cncc(Cl)c1` [Example 19, 4-[(5-chloropyridin-3-yl)oxy]-3-cyano-N-(1,2,4-thiadiazol-5-yl)benzenesulfonamide], the IC50 was more than 10000 nM.
As to `COc1ccc(Oc2ccc(S(=O)(=O)Nc3ncns3)cc2C#N)cn1` [Example 20, 3-cyano-4-[(6-methoxypyridin-3-yl)oxy]-N-(1,2,4-thiadiazol-5-yl)benzenesulfonamide], the IC50 was more than 7520 nM.
As for `N#Cc1cc(S(=O)(=O)Nc2ncns2)ccc1Oc1ccc(C(F)(F)F)nc1` [Example 21, 3-cyano-N-(1,2,4-thiadiazol-5-yl)-4-{[6-(trifluoromethyl)pyridin-3-yl]oxy}benzenesulfonamide], the IC50 was more than 10000 nM.
`N#Cc1cc(Cl)ccc1Oc1ccc(S(=O)(=O)Nc2ncns2)cc1C#N` [Example 22, 4-(4-chloro-2-cyanophenoxy)-3-cyano-N-(1,2,4-thiadiazol-5-yl)benzenesulfonamide] yielded an IC50 of 3160 nM.
Consider `N#Cc1ccc(Oc2ccc(S(=O)(=O)Nc3ncns3)cc2C#N)c(OC(F)F)c1` [Example 23, 3-cyano-4-[4-cyano-2-(difluoromethoxy)phenoxy]-N-(1,2,4-thiadiazol-5-yl)benzenesulfonamide], for which the IC50 was more than 10000 nM.
On the same count and under the same terms, to `N#Cc1ccc(OC(F)F)c(Oc2ccc(S(=O)(=O)Nc3ncns3)cc2C#N)c1` [Example 24, 3-cyano-4-[5-cyano-2-(difluoromethoxy)phenoxy]-N-(1,2,4-thiadiazol-5-yl)benzenesulfonamide diethylamine salt] belongs more than 10000 nM; to `COc1cc(C(F)(F)F)ccc1Oc1ccc(S(=O)(=O)Nc2ncns2)cc1C#N` [Example 25, 3-cyano-4-[2-methoxy-4-(trifluoromethyl)phenoxy]-N-(1,2,4-thiadiazol-5-yl)benzenesulfonamide diethylamine salt], more than 10000 nM.
The same measure, in the same setting: to `COc1cc(Cl)cc(Cl)c1Oc1ccc(S(=O)(=O)Nc2ncns2)cc1C#N` [Example 26, 3-cyano-4-(2,4-dichloro-6-methoxyphenoxy)-N-(1,2,4-thiadiazol-5-yl)benzenesulfonamide diethylamine salt] belongs 875 nM.

The experiment is the same for the next values; noted with them: inhibition of [14C]-uric acid (30 nM) uptake into CHO#8 cells; compound 0 to 10 μM; 4 parameter logistic fit.
“3-chloro-4-(4-chlorophenoxy)-N-(1,2,4-thiadiazol-5-yl)benzenesulfonamide diethylamine salt [Example 62]” gave an IC50 of 722 nM.
On the same count and under the same terms, to “5-chloro-4-(3,4-difluorophenoxy)-2-fluoro-N-(1,3-thiazol-4-yl)benzenesulfonamide [compound 230]” belongs 747 nM.
